# Structures can show the parent of a compound that is named as a salt.
# Tested on: diabetic patient with neuropathy of the lower extremities
# Test: Case reports: diabetic patients with neuropathy / pain of the lower extremities
# Assay type: in vivo, human
# Description: 2. A diabetic patient with severe pains in their legs reported that it was very difficult for them to sleep with the pain. At first, they were instructed to take the one-half the regimen described in Example 1, that is 10 mgs of desipramine and 1 mg of fluphenazine at bedtime. […] 3. A diabetic patient with neuropathy of the lower extremities was prescribed 10 mgs of desipramine alone orally every twelve hours. […] 4. A diabetic patient with severe pain in the lower legs and feet was instructed to take 1 mg of fluphenazine hydrochloride orally every twelve hours beginning at bedtime. […] 5. A diabetic patient with severe lower extremity neuropathy manifested as pain in the lower legs and feet was instructed to take 2 mgs of fluphenazine hydrochloride orally every twelve hours beginning at bedtime.
Structure (SMILES),"patient-reported pain reduction (diabetic patient (Example 4), fluphenazine hydrochloride alone, 1 mg orally every twelve hours, after two weeks)","patient-reported pain reduction (diabetic patient (Example 5), fluphenazine hydrochloride alone, 2 mgs orally every twelve hours, after two weeks)","patient-reported pain reduction (diabetic patient (Example 5), fluphenazine hydrochloride alone, 4 mgs every twelve hours)","patient-reported pain reduction (diabetic patient (Example 3), desipramine alone, 10 mgs orally every twelve hours (20 mgs/day))","patient-reported pain reduction (diabetic patient (Example 3), desipramine alone, higher dosage of 40 mgs per day)"
OCCN1CCN(CCCN2c3ccccc3Sc3ccc(C(F)(F)F)cc32)CC1 [fluphenazine hydrochloride],"somewhat of an improvement in pain reduction, but not complete elimination","somewhat of an improvement in pain reduction, but not complete elimination",substantial improvement in reducing the severity of pain,,
CNCCCN1c2ccccc2CCc2ccccc21 [desipramine],,,,lack of effectiveness in reducing pain,lack of effectiveness in reducing pain
